Patent publication US7160545B2, “HLA-A24 binding peptides of enhancer of zeste homolog 2” (Green Peptide Co., Ltd., priority 2005, dated 2007)
Like-named read-outs stand apart in the source and are kept apart here. No end group written: not given here.

How the values were obtained:
[1] = system: IgG in the plasma of prostate cancer patients; assay: ELISA for peptide-specific IgG in plasma of prostate cancer patients; assay type: binding, human; settings: for Humoral response, Total (IgG-positive patients/patients tested): positive when OD more than 0.04; for IgG reactive to peptide, OD: 1:100-diluted plasma, cut-off OD 0.04, — = not positive
Method: Peptide-specific IgG levels in the plasma were measured by ELISA using a previously reported method (20). In brief, peptide (20 μg/well)-immobilized plates were blocked with Block Ace (Yukijirushi, Tokyo, Japan) and washed with 0.05% Tween20-PBS, after which 100 μl/well of plasma sample diluted with 0.05% Tween20-Block Ace was added to the plates. After a 2-hr incubation at 37° C., the plates were washed and further incubated for 2 hr with a 1:1000-diluted rabbit anti-human IgG (γ-chain-specific) (DAKO, Glostrup, Denmark). The plates were washed, and then 100 μl of 1:100-diluted goat anti-rabbit IgG-conjugated horseradish peroxidase (EnVision; DAKO) was added to each well, and the plates were incubated at room temperature for 40 min. After the plates were washed once, 100 μl/well of tetramethyl benzidine substrate solution (KPL, Guildford, UK) was added, and the reaction was stopped by the addition of 1 M phosphoric acid. The values are shown as optical density (OD) units/ml. To confirm the specificity of IgG to the indicated EZH2 peptide, sample plasma was cultured with plates coated with either the corresponding EZH2 peptide or an irrelevant EZH2 peptide. Thereafter, the levels of EZH2 peptide-specific IgG in the resulting supernatant were determined by ELISA.
As shown above, we investigated whether IgG reactive to each of the 11 EZH2-derived peptides could be detected in the plasma of 10 prostate cancer patients. These patients were not limited to the HLA-A24^+ subjects, because peptide-specific IgG was not restricted to MHC class I molecules, as reported previously (22). The mean+2 SD value (OD: 0.04), which was determined as the level of IgG reactive to the HIV peptide in plasma from HIV-negative healthy donors, was used as a cut-off value at a 1:100 diluted plasma in the ELISA.

LNCaP-A24 cells [2] = assay: 6-hr 51Cr-release cytotoxicity of EZH2 peptide-stimulated PBMCs; assay type: cell-based, human; settings: LNCaP-A24 (HLA-A24^+) versus LNCaP (HLA-A24^−) and PHA-stimulated T cell blasts, PBMCs from 3 HLA-A24^+ patients
Excerpt: To investigate HLA-A24-restricted cytotoxicity, the level of cytotoxicity against the LNCaP was compared with the level of cytotoxicity against its transfectant, LNCaP-A24, which is a subline that transfected with the HLA-A*2402 gene and express the gene stably (Yao A, Harada M, Matsueda S, Ishihara Y, Shomura H, Noguchi M, Matsuoka K, Hara I, Kamidono S, Itoh K, Identification of parathyroid hormone-related protein-derived peptides immunogenic in human histocompatibility leukocyte antigen-A24^+ prostate cancer patients, British Journal of Cancer, 91:287–296, 2004, this reference is incorporated herein by reference). All cell lines were maintained in RPMI-1640 medium (Gibco BRL, Grand Island, N.Y.) supplemented with 10% FCS.
The PBMCs from 3 HLA-A24^+ prostate cancer patients were then stimulated in vitro with the indicated EZH2 peptide, and examined for their cytotoxicity against HLA-A24^− LNCaP cells, HLA-A24^+ LNCaP-A24, and HLA-A24^+ PHA-stimulated T cell blasts. Specifically, after in vitro stimulation with the EZH2 peptides, the peptide-stimulated PBMCs were additionally cultured with 100 U/ml IL-2 for approximately 10 days in 96 round-well plates in order to obtain a sufficient number of cells to carry out a cytotoxicity assay. Then, these cells were tested for cytotoxicity against LNCaP, LNCaP-A24, and PHA-stimulated T cell blasts by a 6-hr ^51Cr-release assay. Two thousand ^51Cr-labeled cells per well were cultured with effector cells in 96 round-well plates at the indicated effector/target ratios.

LNCaP-A24 cells [3] = assay: Inhibition of the cytotoxicity of EZH2 peptide-stimulated PBMCs by antibodies; assay type: cell-based, human; settings: mAb 20 μg/ml; effector/target ratio 10/1; patients 17, 18, 21
Method: We further tried to confirm which effector cells were responsible for the cytotoxicity. EZH2 peptide-stimulated PBMCs from patients 17, 18, and 21 were tested for their cytotoxicity against the LNCaP-A24 cells. The 6-hr cytotoxicity assay was performed in the presence of the indicated monoclonal antibody (mAb). The assay was done at an effector/target ratio of 10/1. Either anti-HLA class I (W6/32: mouse IgG2a), anti-HLA-DR (L243: mouse IgG2a), anti-CD4 (Nu-Th/i: mouse IgG1), anti-CD8 (Nu-Ts/c: mouse IgG2a), or anti-CD14 (H14: mouse IgG2a) mAb was added to the wells at a dose of 20 μg/ml at the start of the assay.

[4] = system: PBMCs of HLA-A24^+ prostate cancer patients; assay: IFN-γ production of peptide-stimulated PBMCs against peptide-pulsed C1R-A24 cells (peptide-specific CTL assay); assay type: cell-based, human; settings: for Cancer patients in whom the peptide induced peptide-specific CTLs: HLA-A24^+ prostate cancer patients; for IFN-γ production: day 15, C1R-A24 cells pulsed with corresponding peptide, HIV peptide background subtracted, mean of 2 wells
Method: The assay for the detection of peptide-specific CTLs in PBMCs was performed according to a previously reported method (21). In brief, PBMCs (1×10^5 cells/well) were incubated with 10 μg/ml of each peptide in a U-bottom-type 96-well microculture plate (Nunc, Roskilde, Denmark) at a volume of 200 μl of culture medium. The culture medium consisted of 45% RPMI-1640, 45% AIM-V medium (Gibco BRL, Grand Island, N.Y.), 10% FCS, 100 U/ml of interleukin (IL)-2, and 0.1 mM MEM nonessential amino acid solution (Gibco BRL, Grand Island, N.Y.). Half of the culture medium was removed and replaced with new medium containing a corresponding peptide (20 μg/ml) every 3 days. On the 15th day of culture, the cultured cells were separated into 4 wells, and two of which were used for EZH2 peptide-pulsed C1R-A24 cells, and the other two of which were used for the HIV peptide-pulsed C1R-A24 cells. C1R-A24 is an HLA-A*2402-expressing subline of C1R lymphoma (Oiso M, Eura M, Katsura F, Takiguchi M, Sobao Y, Masuyama K, Nakashima M, Itoh K, Ishikawa T. A newly identified MAGE-3-derived epitope recognized by HLA-A24-restricted cytotoxic T lymphocytes. Int. J. Cancer 81: 387–394, 1999, this reference is incorporated herein by reference). After an 18-hr incubation period, the supernatants were collected and the level of IFN-γ was determined by ELISA. The EZH2-170 peptide was included in this experiment as an EZH2 peptide that was less frequently recognized by the humoral immune system.

[5] = significant: p < 0.05 and >100 pg/ml of IFN-γ production

KYMCSFLFNL (EZH2 660-669) [EZH2-660]
Humoral response, Total (IgG-positive patients/patients tested) ([1]; 10 prostate cancer patients): 2/10 | IgG reactive to peptide, OD ([1]; prostate cancer patient #2): 0.105 OD | IgG reactive to peptide, OD ([1]; prostate cancer patient #10): 0.058 OD

KYDCFLHPF [EZH2-291]
Cytotoxicity of peptide-stimulated PBMCs / induction of HLA-A24-restricted prostate cancer-reactive CTLs (LNCaP-A24 cells [2]): efficiently induce HLA-A24-restricted and prostate cancer-reactive CTLs | Cytotoxicity of peptide-stimulated PBMCs / induction of HLA-A24-restricted prostate cancer-reactive CTLs (LNCaP-A24 cells [2]; listed as EZH2 291–299): efficiently induced HLA-A24-restricted and prostate cancer-reactive CTLs | Cytotoxicity against LNCaP-A24 cells on addition of anti-class I or anti-CD8 mAb (LNCaP-A24 cells [3]): significantly inhibited

NFMVEDETVL (EZH2 119-128) [EZH2-119]
Humoral response, Total (IgG-positive patients/patients tested) ([1]; 10 prostate cancer patients): 1/10 | IgG reactive to peptide, OD ([1]; prostate cancer patient #8): 0.047 OD

DYRYSQADAL (EZH2 725-734) [EZH2-725]
Humoral response, Total (IgG-positive patients/patients tested) ([1]; 10 prostate cancer patients): 2/10 | IgG reactive to peptide, OD ([1]; prostate cancer patient #2): 0.049 OD | IgG reactive to peptide, OD ([1]; prostate cancer patient #8): 0.056 OD

TYYDNFCAI (EZH2 446-454) [EZH2-446]
Humoral response, Total (IgG-positive patients/patients tested) ([1]; 10 prostate cancer patients): 0/10

RFYIQMCYEL (Flu virus-derived peptide) [reference compound]
Reactivity of peptide-stimulated PBMCs, Total (patients with significant IFN-γ production/patients tested) [4]: 3/10

KYKELTEQQL (EZH2 243-252) [EZH2-243]
Cancer patients in whom the peptide induced peptide-specific CTLs [4]: 2 of 10 | IFN-γ production ([4]; patient #11): 124 pg/mL | IFN-γ production ([4]; patient #12): 25 pg/mL | IFN-γ production ([4]; patient #13): 0 pg/mL | IFN-γ production ([4]; patient #14): 13 pg/mL | IFN-γ production ([4]; patient #15): 27 pg/mL | IFN-γ production ([4]; patient #16): 27 pg/mL | IFN-γ production ([4]; patient #17): 44 pg/mL | IFN-γ production ([4]; patient #18): 13 pg/mL | IFN-γ production ([4]; patient #19): 71 pg/mL | IFN-γ production ([4]; patient #20): 171 pg/mL | Reactivity of peptide-stimulated PBMCs, Total (patients with significant IFN-γ production/patients tested) [4, 5]: 2/10 | Patients in whose plasma IgG reactive to the peptide was detected ([1]; 10 prostate cancer patients): 6 of 10 patients | Humoral response, Total (IgG-positive patients/patients tested) ([1]; 10 prostate cancer patients): 6/10 | IgG reactive to peptide, OD ([1]; prostate cancer patient #1): 0.055 OD | IgG reactive to peptide, OD ([1]; prostate cancer patient #2): 0.080 OD | IgG reactive to peptide, OD ([1]; prostate cancer patient #7): 0.041 OD | IgG reactive to peptide, OD ([1]; prostate cancer patient #8): 0.150 OD | IgG reactive to peptide, OD ([1]; prostate cancer patient #9): 0.089 OD | IgG reactive to peptide, OD ([1]; prostate cancer patient #10): 0.067 OD | Share of prostate cancer patients with IgG reactive to the peptide detected in plasma ([1]; summary statement): almost half

TYGPVFMCL [EBV, reference compound]
Reactivity of peptide-stimulated PBMCs, Total (patients with significant IFN-γ production/patients tested) [4]: 5/10

DFPTQVIPL (EZH2 90-98) [EZH2-90]
Humoral response, Total (IgG-positive patients/patients tested) ([1]; 10 prostate cancer patients): 0/10

IFVELVNAL (EZH2 170-178) [EZH2-170]
Cancer patients in whom the peptide induced peptide-specific CTLs [4]: 1 of 10 | IFN-γ production ([4]; patient #11): 10 pg/mL | IFN-γ production ([4]; patient #12): 15 pg/mL | IFN-γ production ([4]; patient #13): 181 pg/mL | IFN-γ production ([4]; patient #14): 35 pg/mL | IFN-γ production ([4]; patient #15): 10 pg/mL | IFN-γ production ([4]; patient #16): 30 pg/mL | IFN-γ production ([4]; patient #17): 87 pg/mL | IFN-γ production ([4]; patient #18): 0 pg/mL | IFN-γ production ([4]; patient #19): 16 pg/mL | IFN-γ production ([4]; patient #20): 82 pg/mL | Reactivity of peptide-stimulated PBMCs, Total (patients with significant IFN-γ production/patients tested) [4, 5]: 1/10 | Humoral response, Total (IgG-positive patients/patients tested) ([1]; 10 prostate cancer patients): 1/10 | IgG reactive to peptide, OD ([1]; prostate cancer patient #8): 0.043 OD

KYVGIEREM [EZH2-735]
Cytotoxicity of peptide-stimulated PBMCs / induction of HLA-A24-restricted prostate cancer-reactive CTLs (LNCaP-A24 cells [2]): efficiently induce HLA-A24-restricted and prostate cancer-reactive CTLs | Cytotoxicity of peptide-stimulated PBMCs / induction of HLA-A24-restricted prostate cancer-reactive CTLs (LNCaP-A24 cells [2]; listed as EZH2 735–743): efficiently induced HLA-A24-restricted and prostate cancer-reactive CTLs | Cytotoxicity against LNCaP-A24 cells on addition of anti-class I or anti-CD8 mAb (LNCaP-A24 cells [3]): significantly inhibited
